In PubChem BioAssay (NCI):
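Method: 48-hour compound exposure of cells in 96-well plates, five concentrations, linear interpolation of endpoints. At the GI50, growth is halved. Definition used: TGI = concentration required for complete inhibition of growth.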

Tests used:
Experiment in all cases: NCI tumour cell line growth inhibition, 48 h; in the data active = GI50 below about 0.43 µM; inactive = the rest
[1] = test system: ACHN renal
[2] = test system: HCT-116 colon
[3] = test system: HOP-62 NSCLC
[4] = test system: HOP-92 NSCLC
[5] = test system: KM20L2 colon
[6] = test system: M14 melanoma
[7] = test system: MALME-3M melanoma
[8] = test system: MOLT-4 leukemia
[9] = test system: NCI-H460 lung
[10] = test system: UACC-257 melanoma
[11] = test system: UACC-62 melanoma
[12] = test system: DMS 273 small cell lung
[13] = test system: SNB-78 CNS
[14] = test system: A498 renal
[15] = test system: DU-145 prostate
[16] = test system: MCF7 breast
[17] = test system: MDA-N
[18] = test system: PC-3 prostate

CC(C)(C)C(=O)[CH-]C(=O)C(F)(F)C(F)(F)C(F)(F)F.CC(C)(C)C(=O)[CH-]C(=O)C(F)(F)C(F)(F)C(F)(F)F.[O-]CC1OC(O)C(O)C(O)C1O.[O-]CC1OC(O)C(O)C(O)C1O.[Ti+4]
inactive: GI50 [5] > 100 µM
96.9 µM: TGI [4]
> 100 µM: TGI [1] | TGI [2] | TGI [3] | TGI [5] | TGI [6] | TGI [7] | TGI [8] | TGI [9] | TGI [10] | TGI [11]

COc1cc(C2C(Cl)C(=O)N2NC(=O)Cc2ccccc2)ccc1O (stereo not drawn)
> 100 µM: TGI [1] | TGI [12] | TGI [2] | TGI [3] | TGI [5] | TGI [6] | TGI [7] | TGI [8] | TGI [9] | TGI [13] | TGI [10] | TGI [11]

COCC12CC(CC1=O)C1C2ON2c3ccccc3C(=O)C12c1ccccc1 (stereo not drawn)
> 100 µM: TGI [14] | TGI [1] | TGI [12] | TGI [2] | TGI [3] | TGI [4] | TGI [5] | TGI [6] | TGI [7] | TGI [8] | TGI [13] | TGI [10] | TGI [11]

CC1OC(OC2C(O[C@@H]3C[C@@H]4CC[C@@H]5[C@H](CC[C@]6(C)[C@@H]7[C@H](C[C@@H]56)O[C@]5(CC[C@@H](C)CO5)[C@H]7C)[C@@]4(C)C[C@H]3O)OC(CO)C(OC3OC(CO)C(O)C(O)C3O)C2O)C(O)C(O)C1O (stereo partly drawn)
3.1 µM: TGI [14]
3.65 µM: TGI [16]
3.22 µM: TGI [3]
4.29 µM: TGI [15]
3.62 µM: TGI [11]
3.67 µM: TGI [8]
3.37 µM: TGI [17]
3.18 µM: TGI [1]
13.1 µM: TGI [2]
3.07 µM: TGI [6]
4.14 µM: TGI [9]
3.3 µM: TGI [10]
5.16 µM: TGI [4]
2.57 µM: TGI [7]
2.85 µM: TGI [18]

C[N+](C)(Cc1ccc(NC(=O)CCCC(=O)ON2C(=O)CCC2=O)cc1)c1ccccc1
18.2 µM: TGI [2]
> 100 µM: TGI [14] | TGI [1] | TGI [12] | TGI [6]
< 0.01 µM: TGI [4] | TGI [7] | TGI [10] | TGI [11]
1.8 µM: TGI [8]

Cc1cc(=O)[nH]c(CNC(=O)Cc2ccccc2)n1
> 100 µM: TGI [14] | TGI [1] | TGI [12] | TGI [3] | TGI [4] | TGI [5] | TGI [6] | TGI [7] | TGI [8] | TGI [9] | TGI [13] | TGI [10] | TGI [11]

Cn1c(N)c(-c2c3ccccc3nc3ccccc23)c(=O)n(C)c1=O
> 100 µM: TGI [14] | TGI [2] | TGI [4] | TGI [5] | TGI [6] | TGI [7] | TGI [8] | TGI [11]

COc1ccc(Nc2nc3ccccc3nc2C(=O)O)cc1
> 100 µM: TGI [14] | TGI [1] | TGI [15] | TGI [2] | TGI [3] | TGI [4] | TGI [6] | TGI [7] | TGI [16] | TGI [17] | TGI [8] | TGI [9] | TGI [18] | TGI [10] | TGI [11]

COC(=O)c1cc(C)n(NC(=O)OC(C)(C)C)c1C
> 100 µM: TGI [14] | TGI [1] | TGI [12] | TGI [2] | TGI [3] | TGI [5] | TGI [6] | TGI [7] | TGI [8] | TGI [9] | TGI [13] | TGI [10] | TGI [11]

CCOC(=O)C1CC/C(=C(/C#N)C(=O)OC)N1 (stereo not drawn)
> 100 µM: TGI [14] | TGI [1] | TGI [12] | TGI [2] | TGI [3] | TGI [4] | TGI [5] | TGI [6] | TGI [8] | TGI [9] | TGI [13] | TGI [10] | TGI [11]

COC(=O)C(=O)C1CCCCC(C2=NC3NN=C(N)N3C2=O)C1=O (stereo not drawn)
> 100 µM: TGI [14] | TGI [1] | TGI [12] | TGI [2] | TGI [3] | TGI [4] | TGI [5] | TGI [6] | TGI [7] | TGI [8] | TGI [9] | TGI [10] | TGI [11]

CNC(=O)OCCN1c2ccccc2Sc2ccccc21
> 100 µM: TGI [14] | TGI [1] | TGI [15] | TGI [2] | TGI [4] | TGI [6] | TGI [7] | TGI [16] | TGI [17] | TGI [8] | TGI [9] | TGI [18] | TGI [10] | TGI [11]
89.2 µM: TGI [3]

COc1nc2c(c(=O)n1C)NC(C(O)C(O)CO)C=N2 (stereo not drawn)
> 10 µM: TGI [14] | TGI [1] | TGI [15] | TGI [2] | TGI [3] | TGI [4] | TGI [6] | TGI [7] | TGI [16] | TGI [17] | TGI [8] | TGI [9] | TGI [18] | TGI [10] | TGI [11]

Cc1cc2c(=O)[nH]nc(N)c2c(N)n1
> 100 µM: TGI [14] | TGI [1] | TGI [15] | TGI [2] | TGI [3] | TGI [4] | TGI [6] | TGI [7] | TGI [16] | TGI [17] | TGI [8] | TGI [9] | TGI [18] | TGI [10] | TGI [11]

O=C(Nc1cc(Cl)c(Cl)cc1Cl)C(=O)C(C(=O)c1ccc2ccccc2c1)C1OC(=O)c2ccccc21 (stereo not drawn)
50.7 µM: TGI [6]
25.9 µM: TGI [9]
28.7 µM: TGI [10]
30.9 µM: TGI [7]
26.9 µM: TGI [11]
43.5 µM: TGI [3]
38.6 µM: TGI [13]
25.8 µM: TGI [14]
34.6 µM: TGI [2]
7.96 µM: TGI [4]
39.9 µM: TGI [1]

c1ccc2nc3cc4c(cc3nc2c1)NC12CCCCC1CC1=C(CCCC1)N42 (stereo not drawn)
5.25 µM: TGI [8]
9.63 µM: TGI [11]
7.03 µM: TGI [10]
5.33 µM: TGI [7]
6.64 µM: TGI [18]
7.06 µM: TGI [17]
6.35 µM: TGI [6]
> 10 µM: TGI [14] | TGI [1] | TGI [15] | TGI [2] | TGI [3] | TGI [4] | TGI [16] | TGI [9]
